Assay results as given in patent publication US9157069B2, “Method of producing pancreatic hormone-producing cells” (Takeda Pharmaceutical Company Limited, priority 2010, dated 2015).
“Also recorded” adds a separate entry of the source.

Tests used:
human iPS cells [1] = assay: Endoderm induction of human iPS cells, SOX17 gene expression by quantitative RT-PCR; type: cell-based; details: GSK3 inhibitor (CHIR99021 3 μM or BIO 0.5 μM) with activin A 100 ng/ml, after 2 days in CHIR99021 3 μM; from day 4 of culture
Description: To the human iPS cells sedimented in the centrifuge tube, 0.25% trypsin-1 mM EDTA solution (GIBCO) was added, and allowed to dissociate until they form singulated cells. Then, human iPS cells dispersed in a medium were seeded at a density of 15×10^4 cells per one 100 mm dish coated with BD Matrigel (Nippon Becton Dickinson Company, Ltd.), and cultured at 37° C., 5% CO2 for 1 day. The 100 mm dish used was one coated with BD Matrigel diluted 40-fold with serum-free DMEM/F12 medium (Invitrogen), at room temperature for 3 hr or longer. As a medium for dispersion and seeding was a medium for primate ES cell (ReproCELL Inc.) added with 10 μM Y-27632 (Wako Pure Chemical Industries, Ltd.). […]
To examine variation in the expression of endoderm differentiation markers when human iPS cells were cultured, the cells after differentiation induction were recovered over time, and total RNA fraction was purified using RNeasy96 (Qiagen). cDNA was synthesized using PrimeScriptRT reagent kit (Takara Bio Inc.), quantitative RT-PCR was performed, and the gene expression level of a primitive streak marker Brachyury, and an endoderm marker SOX17 was measured. […]
The level of the gene expression of SOX17 when human iPS cells were cultured was measured over time. […]

human iPS cells [2] = assay: Differentiation of human iPS cells into pancreatic hormone-producing cells on BD Matrigel or fibronectin substrate, time-course expression of differentiation markers; type: cell-based; details: substrate for endoderm induction, 100 mm dish coating diluted 40-fold
Description: First, human iPS cells maintained in the state of a cell mass were dissociated until they formed singulated cells in the same manner as in Example 1. Then, human iPS cells dispersed in a medium were seeded at a density of 60×10^4 cells per one 100 mm dish coated with fibronectin (Invitrogen), and cultured at 37° C., 5% CO2 for 1 day. The 100 mm dish used was one coated with fibronectin diluted 40-fold with serum-free DMEM/F12 medium (Invitrogen), at room temperature for 3 hr or longer. (indicated as “fibronectin” in FIG. 7) Human iPS cells dispersed in a medium were seeded at a density of 15×10^4 cells per one 100 mm dish coated with BD Matrigel (Nippon Becton Dickinson Company, Ltd.), and cultured at 37° C., 5% CO2 for 1 day. The 100 mm dish used was one coated with BD Matrigel diluted 40-fold with serum-free DMEM/F12 medium (Invitrogen), at room temperature for 3 hr or longer. (indicated as “Matrigel” in FIG. 7) As a medium for dispersion and seeding was a medium for primate ES cell (ReproCELL Inc.) added with 10 μM Y-27632 (Wako Pure Chemical Industries, Ltd.). One day after seeding, the medium was exchanged with DMEM/F12 medium containing a GSK3β inhibitor CHIR99021 (3 μM) and 2% B-27 supplement (GIBCO) and cultured for 2 days. Then the medium was exchanged with DMEM/F12 medium containing activin A (50 ng/ml) and CHIR99021 (1 μM) and cultured for 2 days.

## O=C1Nc2cc(Br)ccc2/C1=C1/Nc2ccccc2/C1=N\O [BIO, (2′Z,3′E)-6-bromoindirubin-3′-oxime]
Human iPS cells [1]
  expression level of SOX17 (relative to GAPDH): remarkably increased; also recorded: increased over time

## Cc1c[nH]c(-c2cnc(NCCNc3ccc(C#N)cn3)nc2-c2ccc(Cl)cc2Cl)n1 [CHIR99021, 6-[[2-[[4-(2,4-dichlorophenyl)-5-(4-methyl-1H-imidazol-2-yl)-2-pyrimidinyl]amino]ethyl]amino]nicotinonitrile]
Human iPS cells [1]
  expression level of SOX17 (relative to GAPDH): remarkably increased; also recorded: increased over time

## fibronectin
Human iPS cells [2]
  time-course variation in the expression of differentiation markers (SOX17, PDX1, NGN3, insulin), compared between substrates: almost the same
